Experimental data from patent US10624874B2, “Lasofoxifene modulation of membrane-initiated estrogen signals and methods for tumor treatment” (Zhejiang Jiachi Development Pharmaceuticals LTD, priority 2017, dated 2020).
Each block holds one compound with its values, some of them ahead of it.

Columns and labels:
H1299 cells = assay: Proliferation of H1299 lung cancer cells; assay type: cell-based
Procedure: (§1) A. Cell lines HBE, H1299 and H460 were cultured. Expression of EGFR, ER-α66, ER-α46, ER-α36, ER-β, GPER-1 were tested using Western blot. B. HBE cells and H460 cells were treated with 2 μM tamoxifen or 2 μM lasofoxifene. Proliferation of HBE cells and H460 cells were shown after each treatment. C. H460 cells were treated with vehicle only, or gefitinib, or lasofoxifene, or a combination of gefitinib and lasofoxifene. Proliferation of […] were shown after each treatment. D. H1299 were treated with vehicle only, or gefitinib, or lasofoxifene, or a combination of gefitinib and lasofoxifene. Proliferation of lung cancer cells was shown after each treatment.
(§2) Cells were inoculated into 24 well plates with culture medium and treated using the designated concentration of drugs. Cell number was counted using a cell counter (Count Star). The cell bio-behaviors including total cell number and movement were measured using a real-time cell monitoring system. Briefly, the image was captured at 5 min intervals for 66 h. Cell morphological parameters and the movement of each individual cell was calculated following manufacture's instruction.
(§3) We thus tested the expression of ER-α36 from lung cancer cells.

H460 cells = assay: Proliferation of H460 lung cancer cells; assay type: cell-based; conditions: for proliferation of H460 cells: 2 μM, ER-α36+/EGFR+ cells, FIG. 5-B
Procedure: as §1, §2, §3

[1] = test system: MDA-MB231 breast cancer cells; assay: Proliferation of triple negative MDA-MB231 breast cancer cells; assay type: cell-based; conditions: ER-α36 positive MDA-MB231, DMEM 10% FBS, FIG. 9
Description: MDA-MB231 cells treated with lasofoxifene in DMEM medium containing 10% FBS. N=3×3; * and ** mean P<0.05 and P<0.01, respectively.

[2] = test system: tamoxifen-resistance MCF-7 cells; assay: Proliferation of acquired tamoxifen-resistance MCF-7 cells; assay type: cell-based, human; conditions: FIG. 4B
Procedure: A. MCF-7 cells were treated with tamoxifen for ten months. Expression of ER-α66, ER-α46, ER-α36, GPER-1 were tested using Western blot. B. After MCF-7 cells were treated with tamoxifen for ten months, cells were treated with either 2 μM tamoxifen or 2 μM lasofoxifene. Proliferation of MCF-7 were shown under each treatment. ** indicates P<0.01.
MCF-7 cells were grown in EMEM medium containing 10% FBS, antibiotics and 0.1 μM tamoxifen for three months. And then increase tamoxifen concentration to 0.5 μM for another three months, Finally, MCF-7 cells were grown in EMEM medium containing 10% FBS, antibiotics and 1 μM tamoxifen for four months. Tamoxifen-resistance MCF-7 cells were tested by counting cell proliferation rate when cells were grown in high concentration tamoxifen.
To verify our hypothesis that overexpressed ER-α36 variant may result in acquired de novo tamoxifen-resistance, we induced MCF-7 cells using tamoxifen for ten months. We found the expression of ER-α66 was decreased ([…], top panel). In contrast, the expression level of ER-α36 was enhanced (FIG. 4A, middle panel). The expression level of GPER1 was not affected (FIG. 4A bottom panel).

ER-α = target: T1, ER-α (Homo sapiens, UniProt P03372); conditions: cited from earlier work
T1 sequence (P03372 311-547 limits assumed): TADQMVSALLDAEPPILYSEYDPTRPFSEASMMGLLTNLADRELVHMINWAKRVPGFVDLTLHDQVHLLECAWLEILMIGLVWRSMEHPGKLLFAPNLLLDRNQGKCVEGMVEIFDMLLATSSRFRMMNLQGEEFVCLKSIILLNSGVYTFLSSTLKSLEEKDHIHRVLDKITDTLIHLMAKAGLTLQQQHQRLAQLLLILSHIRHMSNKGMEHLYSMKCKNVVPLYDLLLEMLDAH

MCF-7 cells = assay: Inhibition of MCF-7 cell division, cells pre-cultured with or without insulin; assay type: cell-based, human; conditions: same drug compared between ER-α36 positive (insulin-free) and insulin medium cells, FIG. 3B
Procedure: A. MCF-7 cells were grown in insulin-free (IL-) medium for three months. Expression of ER-α66, ER-α36, ER-β and GPER were tested using Western blot. B. MCF-7 cells, after cultured in either medium with insulin or without insulin, were treated with tamoxifen or lasofoxifene. […] C. It compares IC50 (μM) of MCF-7 cells responding to tamoxifen or lasofoxifene at the condition of pre-cultured in medium without insulin. *** indicates P<0.001. D. Graph compares IC50 (μM) of MCF-7 cells responding to tamoxifen or lasofoxifene at the condition of pre-cultured in medium with insulin. * indicates P<0.05.
The transcription variant of ER-α36 lacks the AF-1 and AF2 domains. […] It was found located at plasma membrane and cytosol (Boonyaratanakornkit, V. Steroids. 2011 August; 76(9):877-84). […] Phosphorylated IRS interacts with dimer estrogen-ER complexes, which can then translocate into the nucleus and bond with ERE sequence to regulate RNA transcription through the estrogen classical nuclear pathway. […] In contrast, the expression levels of other estrogen receptors were not affected (FIG. 3A).

[3] = test system: Bcl-2 expression in MCF-7 cells; assay: Bcl-2 expression in MCF-7 cells by western blotting; assay type: cell-based, human; conditions: for effect on Bcl-2 expression in medium without estrogen: MCF-7, charcoal stripped FBS, phenol red-free EMEM, vs Blank, FIG. 2B
Procedure: FIG. 2: Inhibition of Bcl-2 expression in MCF-7 cells by lasofoxifene in comparison with tamoxifen. A: MCF-7 cells were cultured in either EMEM medium containing 10% FBS (Normal) or 5% charcoal striped FBS (CS) for 72 hours. Western blotting assay were performed to analyze Bcl-2 expression (CS: charcoal striped). B: MCF-7 cells were cultured in EMEM medium containing insulin and 5% charcoal striped FBS for 72 hours and then treated by lasofoxifene and tamoxifen for 48 hours. Western blotting assay were performed to analyze Bcl-2 expression. C. MCF-7 were cultured in EMEM medium containing insulin and 10% FBS for 72 hours and then treated by lasofoxifene and tamoxifen for 48 hours. Western blotting assay were performed to analyze Bcl-2 expression. […] E. Statistical analysis of three repeats of part C. N=3×3.
HEK-293, MCF-7, MDA-MB-231, HBE, H1299 and H460 cells were grown following ATCC protocol. The expression level of estrogen-bound receptors was measured using western blotting. Briefly, 80-90% confluence cells were harvested and lysed in RIPA buffer or 1×PBS containing 1% triton-x-100 and protease inhibitor cocktail. Total protein concentration was measured using Bio-rad protein staining dye. Western blotting was performed following standard protocol using nitrocellulose membrane (Millipore) and Bio-rad semi-dry transfer system. The equal amount of total protein from cell lysate was loaded to SDS-PAGE for western blotting. The expression level of ER-α36 and 66, ER-β and GPER1 was measured using antibody.
Estrogen and ER complex binds to estrogen response element (ERE) in chromosome to regulate RNA transcription. Bcl-2 is a key member of anti-apoptosis family proteins. Its overexpression has been linked to many kinds of cancers in human being. […] We first assessed whether lasofoxifene inhibited Bcl-2 expression at higher efficiency compared to tamoxifen. MCF-7 cells were grown in DMEM medium containing insulin and 10% FBS or 5% charcoal striped FBS for 72 h. Cells were then treated by lasofoxifene and tamoxifen for 48 h. We confirmed previous study that the expression of Bcl-2 protein was enhanced by culture medium containing estrogen compared with that containing charcoal-stripped (CS) FBS (FIGS. 2A and B, Blank).

HBE cells = assay: Proliferation of HBE cells; assay type: cell-based; conditions: 2 μM, cells not expressing ER-α36, FIG. 5-B
Procedure: as §1, §2, §3

[4] = test system: BT474 breast cancer cells; assay: Proliferation of Herceptin-resistance BT474 breast cancer cells; assay type: cell-based; conditions: cells treated with 10 μg/ml Herceptin 3 months; 2 μM lasofoxifene, FIG. 10B
Procedure: BT474 breast cancer cells were treated with 10 μg/ml Herceptin® in medium for 3 months. A. Cells positively expressed of ER-α36, and decreased the expression level of HER2.

colon cancer cells = assay: Colon cancer cell division; assay type: cell-based; conditions: ER-α36 positive colon cancer cells, FIG. 8-B
Description: (§4) A: ER-α36 was positively expressed in colon cancer cells. […] NCC: normal colon cells. CCC: colon cancer cells. C: ER-α36 was positively expressed in gastric cancer cells. […] NGC: normal gastric cells. GCC: gastric cancer cells. N=3×3; *** means P<0.001.

GPER1 = target: T2, GPER1 (Homo sapiens, UniProt Q99527); assay: Cytosolic Ca2+ in HEK293 cells overexpressing GPER1-EGFP (Fura-red); assay type: cell-based; conditions: HEK293 overexpressing GPER1-EGFP vs EGFP vector, FIG. 11B
T2 construct: expressed in transfected cells; host or cells: HEK293
Procedure: A. HEK293 cells were transfected with either GPER1-EGFP or EGFP alone.
The assays were performed as following. Briefly, cells were grown on a glass-bottomed perfusion chamber mounted on the stage of an inverted confocal microscope (Andor), and then incubated with 2 μM Fura-red AM (Molecular Probes, Eugene, Oreg., USA) for 60 min at 37° C. in normal culture media. Cells were then perfused continuously with Hanks' balanced salt solution (Sigma) containing 1.8 mM CaCl2 and 0.8 mM MgCl2, pH 7.4. […] Cells were perfused with complete culture media without phenol red, and Fura-red was excited at 572 nm. The fluorescence emitted at 657 nm was then collected and recorded using a CCD-based imaging system running software (Andor).

gastric cancer cells = assay: Gastric cancer cell division; assay type: cell-based; conditions: ER-α36 positive gastric cancer cells, FIG. 8-D
Description: as §4

ER-β = ER-β (Homo sapiens, UniProt Q92731); conditions: higher affinity than raloxifene and tamoxifen; Gennari 2006; cited from earlier work
xenograft H460 tumors = assay: Growth of xenograft H460 tumors in nude mice; assay type: in vivo; conditions: intragastric daily for 2-3 weeks, FIG. 7
Procedure: FIG. 7: Activity to Inhibition of growth of xenograft-ER-α36+/EGFR+ lung tumor (H460) in nude mice by lasofoxifene (LAS) and/or gefitinib. A. Nude mice were grafted with H460 cells. Tumor size were shown after treatment with gefitinib, 3 mg lasofoxifene per kilogram of mouse body mass (3 mg/kg, Las3.0), 1.5 mg lasofoxifene per kilogram of mouse body mass (1.5 mg/kg, Las1.5), 0.75 mg lasofoxifene per kilogram of mouse body mass (0.75 mg/kg, Las0.75), or a combination of gefitinib and 1.5 mg lasofoxifene per kilogram of mouse body mass (Gef+Las1.5). B. Statistical result of tumor mass from two repeat experiments (n≥6).* and ** mean P<0.05 and P<0.01, respectively.
H460 cells were grown in RPMI-1640 medium containing 10% FBS. When cells are 70-80% confluent and ready for experiments, replace medium with fresh medium for 3 hours. Remove medium and wash cells with medium without FBS for three times. Cells were then trypsinized and suspended in medium, equal volume of cells and support gel was mixed up to 200 μl for each injection. Cells were injected subcutaneously (s.c.) into 4-6 week old nude mice. 1.0˜2.0×10^6 H460 cells were administrated into each nude mouse. […] Tumor size were calculated by the formula: volume=(width)^2×length/2.
To verify in vitro results, we constructed xenograft H460 tumors in nude mice. The tumor size was measured using digital vernier caliper. […]

T2 sequence (Q99527 whole entry, species assumed): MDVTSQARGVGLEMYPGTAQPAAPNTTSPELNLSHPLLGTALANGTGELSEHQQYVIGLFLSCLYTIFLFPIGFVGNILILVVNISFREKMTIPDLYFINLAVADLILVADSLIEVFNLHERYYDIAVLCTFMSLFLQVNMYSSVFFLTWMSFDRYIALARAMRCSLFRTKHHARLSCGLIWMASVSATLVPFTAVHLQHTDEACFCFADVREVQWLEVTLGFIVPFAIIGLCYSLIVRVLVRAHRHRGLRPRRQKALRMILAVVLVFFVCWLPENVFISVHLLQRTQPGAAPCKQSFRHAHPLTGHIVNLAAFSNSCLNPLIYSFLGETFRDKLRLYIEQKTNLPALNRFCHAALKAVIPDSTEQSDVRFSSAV
Sequence of ER-β (Q92731 whole entry, species assumed): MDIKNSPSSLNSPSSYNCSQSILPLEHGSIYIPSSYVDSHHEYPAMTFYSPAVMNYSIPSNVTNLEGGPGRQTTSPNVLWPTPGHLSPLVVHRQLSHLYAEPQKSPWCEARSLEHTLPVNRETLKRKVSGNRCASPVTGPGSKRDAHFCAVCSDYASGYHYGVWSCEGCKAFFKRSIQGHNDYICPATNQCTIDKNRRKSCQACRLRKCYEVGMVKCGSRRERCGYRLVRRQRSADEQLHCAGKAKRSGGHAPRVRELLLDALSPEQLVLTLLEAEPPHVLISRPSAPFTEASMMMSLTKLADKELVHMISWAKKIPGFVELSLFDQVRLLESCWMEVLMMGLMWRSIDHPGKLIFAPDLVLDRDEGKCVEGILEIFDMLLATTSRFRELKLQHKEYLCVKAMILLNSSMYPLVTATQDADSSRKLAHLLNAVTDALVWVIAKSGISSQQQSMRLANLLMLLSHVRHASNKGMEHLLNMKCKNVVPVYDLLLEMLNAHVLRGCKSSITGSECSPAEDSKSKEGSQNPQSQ

Structure (SMILES): COc1cc2ncnc(Nc3ccc(F)c(Cl)c3)c2cc1OCCCN1CCOCC1 [gefitinib]
proliferation of H1299 cells, gefitinib alone or combined (H1299 cells; concentration not given, FIG. 5D): did not inhibit H1299 cell proliferation | proliferation of H460 cells, gefitinib alone or combined (H460 cells; concentration not given, FIG. 5C): inhibited the proliferation of H460

Structure (SMILES): Oc1ccc2c(c1)CC[C@H](c1ccccc1)[C@@H]2c1ccc(OCCN2CCCC2)cc1 [lasofoxifene, (−)-cis-(5R,6S)-6-phenyl-5-[4-(2-pyrrolidin-1-ylethoxy)phenyl]-5,6,7,8-tetrahydronaphthalen-2-ol]
proliferation of triple negative breast cancer cells [1]: the same lasofoxifene activity was also found | inhibition at 2 µM ([2]; Homo sapiens, MCF7, MCF-7 induced by tamoxifen for over 10 months, read-out: inhibiting activity on proliferation): > 50% | affinity for ER-α relative to those reported for raloxifene and tamoxifen (ER-α; higher affinity than raloxifene and tamoxifen, Gennari 2006): at least 10 fold | binding affinity to ER-αLBD (ER-α; reported value): 1.5 nM | inhibition of MCF-7 cell division, without vs with insulin (IC50 comparison) (MCF-7 cells): more effectively inhibited divisions of MCF-7 cell which positively expressed ER-α36 | proliferation of H1299 cells (H1299 cells; 2 μM, ER-α36 high, weak EGFR, FIG. 5-D): inhibited | effect on Bcl-2 expression in medium without estrogen ([3]; treated 48 h): neither tamoxifen nor lasofoxifene affected Bcl-2 expression | inhibition of Bcl-2 expression ([3]; MCF-7, medium with insulin and 10% FBS 72 h, treated 48 h, 2.5 μM LAS vs 2.5 μM TAM, FIG. 2C): weaker activity to inhibit Bcl-2 expression compared with tamoxifen | dose dependence of Bcl-2 expression inhibition ([3]; MCF-7, medium with insulin and 10% FBS, 48 h, FIG. 2D): inhibited Bcl-2 expression in a dosage dependent manner | proliferation of H460 cells (H460 cells): inhibited | proliferation of HBE cells (HBE cells): Neither tamoxifen nor lasofoxifene affected the proliferation of HBE cells | proliferation of Herceptin-resistance BT474 cells [4]: Sensitive response | colon cancer cell division (colon cancer cells): inhibited colon cancer cell division | cytosolic [Ca2+]i (GPER1): significantly enhanced cytosolic [Ca^2+]i | gastric cancer cell division (gastric cancer cells): inhibited gastric cancer cell division | affinity for ER-β relative to those reported for raloxifene and tamoxifen (ER-β): at least 10 fold | growth of xenograft H460 tumors (xenograft H460 tumors): inhibited the growth of xenograft H460 tumors

Structure (SMILES): O=C(c1ccc(OCCN2CCCCC2)cc1)c1c(-c2ccc(O)cc2)sc2cc(O)ccc12 [raloxifene]
cytosolic [Ca2+]i (GPER1): significantly enhanced cytosolic [Ca^2+]i

inhibition of MCF-7 cell division, without vs with insulin (IC50 comparison) (MCF-7 cells): exerted the opposite effect
Structure (SMILES): CC/C(=C(\c1ccccc1)c1ccc(OCCN(C)C)cc1)c1ccccc1 [tamoxifen]
inhibiting activity on proliferation ([2]; 2 μM, MCF-7 induced by tamoxifen for over 10 months): did not inhibit MCF-7 cell proliferation | effect on Bcl-2 expression in medium without estrogen ([3]; treated 48 h): neither tamoxifen nor lasofoxifene affected Bcl-2 expression | proliferation of H460 cells (H460 cells): exhibited opposite effect | proliferation of HBE cells (HBE cells): Neither tamoxifen nor lasofoxifene affected the proliferation of HBE cells
